From US9289509B2, “Uses of immunoconjugates targeting CD138” (Biotest AG, priority 2009, dated 2016)

System: MOLP8 multiple myeloma cells
Assay: MOLP8 xenograft: BT062 and VELCADE combination therapy
Type: in vivo, mouse
[1] = BT062 400 ug/kg Day 1 (line r10)
[2] = BT062 400 ug/kg Day 1, last line of table (r18)

## BT062
BT062 100 ug/kg Day 1
  (T-C): 5.5 days
  Regressions Complete: 0/6
  Regressions Partial: 0/6
  Result: Inactive
  T/C (%): 43%
  Tumor free survivors day 67: 0/6
  log cell kill: 0.5
BT062 200 ug/kg Day 1
  (T-C): 14.5 days
  Regressions Complete: 0/6
  Regressions Partial: 1/6
  Result: Active
  T/C (%): 11%
  Tumor free survivors day 67: 0/6
  log cell kill: 1.3
[1]
  (T-C): 31.5 days
  Regressions Complete: 2/6
  Regressions Partial: 4/6
  T/C (%): 7%
  Tumor free survivors day 67: 0/6
  log cell kill: 2.8
[2]
  (T-C): 36.5 days
  Regressions Complete: 0/6
  Regressions Partial: 6/6
  T/C (%): 7%
  Tumor free survivors day 67: 0/6
  log cell kill: 3.2
BT062 100 alone, day 10
  Fractional tumor volume (FTV): 1.06
BT062 100 alone, day 14
  Fractional tumor volume (FTV): 0.74
BT062 100 alone, day 18
  Fractional tumor volume (FTV): 0.44
BT062 100 alone, day 21
  Fractional tumor volume (FTV): 0.39
BT062 100 alone, day 25
  Fractional tumor volume (FTV): 0.48
BT062 200 alone, day 10
  Fractional tumor volume (FTV): 1.02
BT062 200 alone, day 14
  Fractional tumor volume (FTV): 0.52
BT062 200 alone, day 18
  Fractional tumor volume (FTV): 0.13
BT062 200 alone, day 21
  Fractional tumor volume (FTV): 0.10
BT062 200 alone, day 25
  Fractional tumor volume (FTV): 0.10
BT062 400 alone, day 10
  Fractional tumor volume (FTV): 1.09
BT062 400 alone, day 14
  Fractional tumor volume (FTV): 0.45
BT062 400 alone, day 18
  Fractional tumor volume (FTV): 0.08
BT062 400 alone, day 21
  Fractional tumor volume (FTV): 0.05
BT062 400 alone, day 25
  Fractional tumor volume (FTV): 0.04
